In patent publication US11819021B2, “Peptides and methods and uses thereof for modulating anaphase promoting complex (APC) activity” (University of Saskatchewan, priority 2017, dated 2023):
Entries after “also recorded” stand apart in the source; their conditions may differ. No end group written: not given here.

Assays:
[1] = system: MCF7 human breast cancer cells selected for resistance to Tamoxifen; assay: Trypan Blue viability of drug resistant MCF7 breast cancer cells; format: cell-based
Method: (§1) A. Parental MCF7 human breast cancer cells, or cells selected for resistance to Tamoxifen, were treated with 1 or 5 μM M2I-1. Tamoxifen resistant cells were also treated with both Doxorubicin and M2I-1. Trypan Blue. (3 rpts). ND, no data. B. Protein lysates were prepared from the cells used in A. The APC target HURP was measured using antibodies against HURP. C. Trypan Blue was used to measure viability of OSW canine lymphoma cells pretreated with 1 μmol M2I-1 (18 hrs), followed by 1 μmol DOX (48 hrs). Parental cells were only treated with monotherapy (3 rpts). ND, no data. D. OSW matched cells treated with the APC activator M2I-1 were prepared for APC substrate westerns E. Quantification of western protein abundance (3 rpts).
(§2) Drug resistant human breast cancer cells in culture were treated with the M2I-1 activator.

[2] = system: OSW canine lymphoma cells; assay: Trypan Blue viability of drug resistant OSW lymphoma cells; format: cell-based; details: OSW dog lymphoma cells selected for drug resistance; 1 μmol M2I-1 (18 hrs) then 1 μmol DOX (48 hrs)
Method: as §1, §2

Cyclin B = assay: Western of APC substrate abundance in PDX tumor; format: in vivo, mouse; details: 25 mg/kg, after sacrifice on Day 6
Method: (§3) A. In vivo study of M2I-1 impact on human breast tumor (4-28 PDX). Single 25 mg/kg i.p. injection (treatment) versus mock (DMSO) day 1, tumor size measured daily. B. Western analysis of apoptosis (PARP cleavage—24 kDa band) and APC substrate abundance (Cyclin B) in liver and tumor of treated and control after sacrifice on Day 6.
(§4) A mouse model for growing patient derived breast tumor cells obtained from a patient with triple negative breast cancer was developed. This patient had developed resistance to Doxorubicin. Tumors growing in these mice grow rapidly. A mouse was injected with 25 mg/kg M2I-1.

[3] = system: human breast tumor (4-28 PDX); assay: Tumor growth in mouse model of patient derived triple negative breast cancer (4-28 PDX); format: in vivo; details: single 25 mg/kg i.p. injection, Doxorubicin resistant TNBC PDX mouse
Method: as §3, §4

HURP = assay: Western of APC substrates in drug resistant MCF7 cells; format: cell-based; details: drug resistant human breast cancer cells
Method: as §1, §2

Securin = assay: Western of APC substrate in transformed wheat embryos; format: cell-based
Method: (§5) A. Wheat embryos were transformed with an expression vector harboring the C43-4-HA peptide fused to the red fluoresce protein (RFP), or an RFP empty vector, using a ballistic shotgun approach. Embryos were imaged using fluorescence to view RFP. B. Protein lysates were prepared from the transformed embryos and subjected to western analyses using antibodies against the APC substrate Securin. A nonspecific protein band is used to control for protein load.
APC targets APC substrates for degradation such that the relative levels provides an indication of APC activity in a cell. For example, if the substrates are reduced, without being bound by any theory, it is believed to mean that the APC is working better.

apc10Δ cells = assay: Spot dilution growth of apc10Δ cells expressing peptides; format: cell-based, yeast; details: 30 and 34° C.
Description: A. Y2H cells expressing the APC subunit bait and the galactose inducible Apc10 peptide prey grown on glucose or galactose. Cells co-expressing the Apc5 or Apc10-bait and Apc10 aptamer-prey vectors were spotted onto the appropriate media, in the presence or absence of galactose (the aptamers are Gal inducible), to confirm 2-hybrid interactions. Growth on trp-his-media ensures both plasmids are maintained. A 2-hybrid interaction will drive expression of the ADE2 gene, allowing growth on ade-media. B. Aptamers that bind Apc10 can suppress APC mutant phenotypes. Spot dilutions of apc10Δ cells expressing an empty vector control or the one of 6 Apc10 aptamers tested. Log phase cells were 10-fold serially diluted and spotted onto plates containing either 2% glucose or 2% galactose. The plates were then incubated at 30° C. (permissive temperature) and 34° C. (restrictive stress). C. Peptides identified as binding to the yeast Apc10 APC subunit using the yeast 2-hybrid screen increase growth of cells on stress conditions. A series of APC binding peptides were transformed into wild type yeast cells, spot diluted, and grown at 30° C. on media supplemented with the normal carbon source (2% glucose). Alternatively, cells were grown on media supplemented with 2% galactose to induce a carbon stress. D. Peptides were expressed in apc5^ts temperature sensitive cells and grown on glucose or galactose media at 30° C.
The cells were exposed to 5 sec of UV from a UV box prior to incubation.
The six peptide expressing vectors were transformed into apc10Δ cells and assessed for temperature sensitive growth. Two of the peptides, C43-4 and C2-4B, suppressed the apc10Δ growth phenotype at 30 and 34° C. (FIG. 1B-D). […]
Over 100 peptides that bound either Apc5 or Apc10 were recovered from millions screened. […] Vectors expressing these 6 peptides were transformed into APC mutant cells and assessed for ts growth.
Methods • 1. […] The growth of the cells was determined by measuring the optical density (OD) of the cells at 600 nm (OD600) • 3. […]

apc5^CA cells = assay: Yeast replicative lifespan (RLS) assay; format: cell-based
Method: (§6) A. apc5^CA (temperature sensitive allele) cells were transformed with C43-4, C2-4B or an empty vector. Cells grown overnight in 2% Glu were struck onto 2% Glucose plates and used for the yeast replicative lifespan (RLS) assay. B. Wild type (WT) cells transformed with C43-4, C2-4B or an empty vector were grown to stationary phase in 2% Glu media, then after 2 days spot diluted onto 2% Glu or 2% Gal to induce expression of the aptamers.
(§7) A. apc5^CA cells expressing small peptides were assayed for replicative life span (RLS). B. Cells expressing HTZ1 were grown under stress conditions. HTZ1 expression, even at low levels, suppresses apc5^CA and apc10Δ defects. The cells shown were transformed with either an empty vector or GAL inducible HTZ1. On 2% glucose, the construct is weakly expressed, and this is enough to increase growth of APC mutants at 30° C.

WT cells = assay: Chronological lifespan of WT yeast cells; format: cell-based
Method: as §6
(§8) The six peptide expressing vectors were transformed into apc10Δ cells and assessed for temperature sensitive growth. Two of the peptides, C43-4 and C2-4B, suppressed the apc10Δ growth phenotype at 30 and 34° C. (FIG. 1B-D). […] However, C43-4 and C2-4B increased replicative and chronological lifespan in both apc5^CA and WT cells, respectively (FIG. 2A). […] H2O2 induces oxidative stress whereas galactose induces a carbon stress.

[4] = system: wild type (WT) yeast cells; assay: Spot dilution growth and stress resistance of wild type yeast cells expressing peptides; format: cell-based
Method: as §6
The cells were exposed to 5 sec of UV from a UV box prior to incubation. The plus signs define growth compared to the empty vector control.
as §8
These cells were spot diluted on Trp-plates and grown at the temperatures shown and/or exposed to ultraviolet (UV) irradiation (FIG. 11). At low level expression on glucose, some of the mutations caused stress dependent phenotypes.
Methods • 1. Cells were cultured overnight in Trp-2% glucose media • 2. The growth of the cells was determined by measuring the optical density (OD) of the cells at 600 nm (OD600) • 3. Cells were diluted to OD600 of 1 with fresh culture media • 4. 100 ul of each culture was pipetted into a well of a 96 well plate • 5. 10 ul of the each starting culture was pipetted into 90 ul of water in 4 additional wells to make a 10-fold serial spot dilution • 6. 5 ul from each serial dilution was spotted onto plates containing standard growth media with either 2% glucose or 2% galactose using a multi-pipettor • 7. The plates were exposed to UV • 8. The plates were then placed at room temperature, 30, 34 or 37° C. for 3-7 days • 9. The plates were scanned and saved as tiff files

[5] = system: APC mutant (apc5 temperature sensitive mutant and/or apc10Δ mutant); assay: Viability/growth of APC mutant yeast cells; format: cell-based
Method: as §7
Examples of yeast cells with defective anaphase promoting complex (APC) function include apc5 and apc10 mutants. An example of an apc5 mutant is the apc5 temperature sensitive mutant described herein. An example of an apc10 mutant is the apc10 deletion mutant described herein.
(§9) The reverse genetic screen utilized a yeast 2-hybrid (Y2H) protocol that selected for peptides that bound to the APC subunits Apc5 or Apc10 (see FIG. 5 for APC structure), to assess whether peptide-binding might modify APC function. Peptides that bound APC subunits were then assayed for those that suppressed APC mutant defects.
(§10) Over 100 peptides that bound either Apc5 or Apc10 were recovered from millions screened. Six peptides that reproducibly interacted with the Apc10 bait construct in Y2H assays were examined further. Vectors expressing these 6 peptides were transformed into APC mutant cells and assessed for ts growth.

Apc10 = target: T1, Apc10 (Saccharomyces cerevisiae, UniProt P53068); assay: Yeast 2-hybrid (Y2H) binding of peptide prey to Apc10 bait; details: galactose-inducible Trx-scaffold peptide prey
T1 construct: expressed in transfected cells; host or cells: yeast Y2H cells
T1 sequence (P53068 1-250): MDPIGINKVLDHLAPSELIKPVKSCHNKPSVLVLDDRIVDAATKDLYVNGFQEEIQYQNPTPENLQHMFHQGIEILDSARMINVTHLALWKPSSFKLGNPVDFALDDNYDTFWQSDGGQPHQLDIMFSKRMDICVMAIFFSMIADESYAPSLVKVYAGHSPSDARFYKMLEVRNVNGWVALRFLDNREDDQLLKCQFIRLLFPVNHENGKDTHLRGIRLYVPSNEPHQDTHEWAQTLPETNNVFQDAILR
Method: as §9
A library of random small peptides were cloned into a Thioredoxin (Trx) scaffold (see FIG. 6 for Trx-aptamer structure) and expressed from a galactose-inducible Y2H prey vector in cells expressing the Apc10 bait vector (the modified Apc10 is still part of the complete APC complex). Six peptides that reproducibly interacted with the Apc10 bait construct in Y2H assays were identified (FIG. 1A) and were examined further.
(§11) Random small peptides were cloned into the TrxA scaffold (library provided by R. Geyer, U of S) and expressed from a galactose-inducible Y2H prey vector in cells harboring either APC5 or APC10 Y2H bait vectors (APC5/APC10 bait constructs complement APC mutant defects).
as §10

wheat embryos = assay: Expression of C43-4 in wheat embryos: localization and germination; format: in vivo; details: versus empty vector controls
Method: as §5
C43-4 was subcloned into a plant vector and expressed in wheat embryos.
The wheat embryos (scutella) were transformed using a Biolistics-mediated transformation of wheat embryos. Wheat embryos were inoculated with Agrobacterium harbouring an RFP expression vector. Following inoculation with Agrobacterium, embryos were placed on a medium that allows for growth of both the embryos and the Agrobacterium. Timentin was used for killing remaining A. tumefaciens cells after co-cultivation.
Germination rate was determined as a function of time to observe growth from the embryo and on average, the transformed embryos containing the peptide germinated before empty vector controls. […] Accordingly, the Htz1-like peptide (C43-4) activates the APC in plants.

Cin5 = target: T2, Cin5 (Saccharomyces cerevisiae, UniProt P40917); assay: Yeast 2-hybrid with Y65 bait to identify binding partners
T2 construct: expressed in transfected cells; host or cells: yeast Y2H cells
T2 sequence (P40917 1-295): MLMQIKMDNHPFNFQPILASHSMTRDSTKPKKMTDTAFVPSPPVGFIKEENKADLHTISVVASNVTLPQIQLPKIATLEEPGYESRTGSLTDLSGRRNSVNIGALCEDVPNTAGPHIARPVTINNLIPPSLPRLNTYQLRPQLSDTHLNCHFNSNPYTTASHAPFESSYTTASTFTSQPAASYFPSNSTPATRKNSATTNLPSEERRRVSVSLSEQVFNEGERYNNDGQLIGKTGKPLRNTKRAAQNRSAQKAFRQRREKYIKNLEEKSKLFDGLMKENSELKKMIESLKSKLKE
Description: One peptide in particular, Y65, was of interest because it had homology to Elongin C (Elc1; Y65 is 20 amino acids in length, with a 7 residue stretch sharing 86% identity and 100% similarity with Elc1). Elc1 is a ubiquitin-protein ligase (E3) conserved among eukaryotes that is involved in DNA repair (Harreman et al, 2009; Ribar et al, 2007). To identify what the peptides bound in order to modify APC activity, Y65 was cloned into the Y2H bait vector and used to identify binding partners.

[6] = system: apc5^CA temperature sensitive mutant; assay: Forward genetic screen: rescue of apc5^CA temperature sensitive growth; format: cell-based, yeast
Description: Using a forward genetic screen to test whether temperature sensitive (ts) APC mutants expressing random small peptides could grow at restrictive temperatures, millions of small peptides were rapidly screened for those that could restore mutant APC phenotypes. Peptides that rescued the apc5^CA ts (temperature sensitive) defect were recovered including peptides Y65 and Y36.
In the forward screens, with galactose-inducible TrxA-based peptide libraries, in cells harboring the apc5^CA ts allele, over 200 peptides (from millions screened) suppressed the ts phenotype. Several recovered plasmids were sequenced.

APC = assay: Yeast 2-hybrid binding to the APC
Description: As used herein, the expression “binds to the APC” refers to a peptide that binds to at least one subunit of the APC, for example Apc5 or Apc10. Binding can be measured for example, by any method known in the art, including, but not limited to a yeast 2-hybrid assay.
as §9, §11

CC(C)CN(CC(C)C)c1ccc(C=C2C(=O)NC(=S)NC2=O)cc1[N+](=O)[O-] [M2I-1, Mad2 Inhibitor-1]
Growth / toxicity of activator alone in drug resistant breast cancer cells ([1]; 1 or 5 μM, 18 hrs, Trypan Blue): did not impair the growth; also recorded: not toxic
Cell killing / toxicity in combination with chemotherapy (Doxorubicin) ([1]; Tamoxifen resistant MCF7 cells): only in the presence of M2I-1 were cells killed; also recorded: enhances toxicity
Cell killing in combination with chemotherapy [2]: only in the presence of M2I-1 were cells killed
Markers of APC substrates in the tumor (Cyclin B): positive for APC activation
Tumor growth [3]: stalled
Levels of APC substrates (HURP): reduced

NGSSHNDLRVRRLTLISRLC (also: expressed in thioredoxin scaffold) [C43-4, Peptide aptamer expressed from Thioredoxin scaffold; residues 2-14 homologous to Htz1]
Level of tested APC substrate in the embryo (Securin): reduced level
apc10Δ growth phenotype (apc10Δ cells): suppressed
Replicative lifespan (apc5^CA cells): increased
Chronological lifespan (WT cells): increased
Log phase growth of wild type (WT) cells ([4]; 30° C.): Neither C43-4 nor C2-4B influenced
Stress resistance at low level expression ([4]; WT cells on glucose, temperature and/or UV stress, versus empty vector): increased stress resistance
Stress resistance when overexpressed in WT yeast cells ([4]; overexpressed, H2O2 oxidative stress, galactose carbon stress): increased stress resistance
Viability of an APC mutant [5]: increases the viability
Binds Apc10 in a yeast 2 hybrid assay (Apc10): Binds Apc10
Germination of transformed wheat embryos (wheat embryos): germinated faster

VRQKSDKEYERVLGLGLRRL [Y65, Peptide with homology to Elc1]
Interaction with Cin5 in a yeast 2 hybrid assay (Cin5): One peptide binding partner was isolated, Cin5; also recorded: Interacts with Cin5 in a yeast 2
apc5^CA temperature sensitive (ts) growth / viability of an apc5 temperature sensitive mutant [6]: increases the viability; also recorded: rescued; also recorded: Rescues apc5^CA temperature
Binding to the APC in a yeast 2HY assay (APC): not bind the APC in a yeast 2HY
